The values that follow come from patent publication US11453642B2, “Oxygenated amino- or ammonium-containing sulfonic acid, phosphonic acid and carboxylic acid derivatives and their medical use” (GRI BIO, INC., priority 2011, dated 2022).

Marks after values point to notes of the source that are not given here.

For data set [1], the system named is allergic contact dermatitis response in mice. As to the kind of experiment: Allergic contact dermatitis (TDI) model in mice, mouse ear swelling test. It counts as in vivo. The procedure: The anti-inflammatory and anti-allergic effects of compounds 1a and 1c were assessed in a mouse model of allergic contact dermatitis, a response driven primarily by T helper type 2 (Th2) cells. […] In this model, an allergic dermatitis response is obtained by sensitizing mice to TDI and subsequently challenging them with antigen by topical administration onto the ears. A quantitative assessment of anti-inflammatory and anti-allergic effects of topically or orally administered test compounds is possible by measuring the resulting ear swelling. The advantages of the allergic contact dermatitis model (Zöllner et al., Bioessays 26:693-6 (2004)) are reproducibility and reliability (>90% of BALB/c mice respond to sensitization), a short induction protocol, quantitative assessment by measuring ear thickness, atopic dermatitis-like skin lesions can be induced, and clinically relevant pharmaceuticals, such as corticosteroids, calcineurin-inhibitors and PDE4-inhibitors, are effective in this model.
Female BALB/c-mice were obtained from Charles River (Sulzfeld, Germany) at age 8 weeks. All animals were housed in groups of eight per cage at 22° C. with a 12 h light/dark-cycle, Water and a standard diet (Altromin, Lage/Lippe, Germany) were available ad libitum. All animals were acclimatized for one week before experimental procedures were commenced.
Experimental procedures for BALB/c mice housing, TDI sensitization and challenge, and measurement of ear thickness were performed as previously described (Baumer et al., J Pharm Pharmacol, 55:1107-1114 (2003)) with the following modifications. For active sensitization, 100 μL of 5% (w/v) TDI was administered to the shaved and stripped abdominal epidermis on day one, and for the next three consecutive days, 50 μL of 5% (My) TDI was applied. The allergic reaction was boosted 21 days later by application of 50 μL of 0.5% (w/v) TDI. For the examination of test compound effects, the left ears were used for the TDI challenge (20 μL of 0.5% in acetone) and ear thickness measured 3 h before and 24 h after challenge.
Group size was n=7 mice unless otherwise stated. Test compounds were freshly prepared before administration.
Administration time: to determine optimal time for administration treatment groups were treated orally by gavage with 100 mg/kg of compound 1a or 1c (suspended in 0.5% tylose, 10 mL/kg) 1, 4 or 16 h before topical TDI challenge. One group was treated with 100 mg/kg miltefosine orally, 16 h before challenge (based on available data for optimal administration time for miltefosine) and vehicle treated mice received tylose (10 mL/kg) orally, 4 h before challenge.
Dose-response: two groups of mice were treated orally with compound 1a at 25 mg/kg or 100 mg/kg suspended in 0.5% tylose, 4 h before topical TDI challenge. Vehicle treated mice received 0.5% tylose orally 4 h before challenge. As a positive control, dexamethasone was administered in saline solution at 1 mg/kg or 3 mg/kg, 2 h and 30 min before challenge and 1 h after challenge. The dose and dosing scheme for dexamethasone was based on previous experience showing a maximal effect in this model.
Compound 1a was administered to two groups of mice topically in 20 μl of a 2% or 6% solution in propyleneglycol. The suspension was heated to 60° C. and mixed using a thermomixer (Eppendorf) until it became clear. The solution was applied, 2 h before topical TDI challenge by administration of 10 μl onto each of the inner and outer surfaces of the left ears. A vehicle group (17=5) was treated with propyleneglycol. As a positive control, diflorasone, diacetate was administered at 0.01% (low dose) and 0.05% (high dose) in 20 μl acetone, 2 h before challenge. A basal control group was left untreated.
Mean and standard error of the mean (SEM) were calculated from individual ear edema values. […]

For data set [2], the system named is local lymph node reaction. As to the kind of experiment: Local lymph node weight and cell count after TDI challenge. It counts as in vivo, mice. The conditions noted are these: topical 1a 2% or 6%, diflorasone 0.1% and 0.5%. How it is done:
Directly after sacrifice, the ear draining lymph node (Ln. auricularis) was prepared and excised. Organ weight was determined by means of an analytical balance (Kern, Balingen, Germany). Single cell suspensions were prepared by means of a glass potter (VWR, Darmstadt, Germany) and cells were counted with a hemocytometer (Neubauer, VWR, Germany).
One of the most undesirable side-effects of corticosteroid administration is immunosuppression, which leads to the inability to effectively address parasitic infection, wound healing and tumor growth. In the current study, the local lymph node reaction after TDI challenge (lymph node weight and cell number) was determined to assess the response of immune organs.

The subject of data set [3] is allergic contact dermatitis response in mice. The experiment in a line: Allergic contact dermatitis (TDI) model in mice, mouse ear swelling test. It counts as in vivo. The conditions noted are these: topical, 0.5% in 20 μl acetone, 2 h before challenge.

On to `CC(=O)OCC(=O)[C@@]1(OC(C)=O)[C@@H](C)C[C@H]2[C@@H]3C[C@H](F)C4=CC(=O)C=C[C@]4(C)[C@@]3(F)[C@@H](O)C[C@@]21C` [Diflorasone, diflorasone diacetate, reference compound], for which the “effect on ear swelling (in words)” value in data set [1] (topical positive control, ear thickness reduced below level of untreated mice) is recorded as “completely eliminated ear swelling”. The “Inhibition of mouse ear swelling” value was 101.1*** % in data set [1] (topical, 0.1% in 20 μl acetone, 2 h before challenge) and 110.8*** % in data set [3]. For the same compound, in data set [2], the “local lymph node reaction (lymph node weight and cell number)” value was “completely inhibiting the increase”.
